{"source": "patent US20130336940A1", "about": "“MODIFIED PIG ISLETS FOR DIABETES TREATMENT” (UNIVERSITE CATHOLIQUE DE LOUVAIN, priority 2011, published 2013)", "key": {"pigs": {"tested_on": "pigs", "test": "Intravenous glucose tolerance test (IVGTT) in STZ-injected pigs", "assay_type": "in vivo, pig", "description": "[…] STZ was solubilised in citrate buffer (25% v/v Na citrate, 23% v/v citric acid, 52% v/v H2O, pH 4.5) and filtered before injection in the external jugular vein (Dufrane, Transplantation, 2006).\nIntravenous glucose tolerance tests (IVGTTs) were performed prior and 3 months after STZ injection under general anesthesia (induction by Zoletil (VIRBAC, Carros, France) IM at a dose of 6 mg/kg, maintained by intubation and inhalation of Enflurane (0-1.5%), nitrous oxide and oxygen. A catheter was introduced in the extern jugular vein and a solution of 0.5 g glucose/kg was injected. Blood samples were taken prior and 1, 3, 5, 10, 20, 30, 60, 90 minutes after complete injection of glucose. Glycaemia was measured on these samples (AccuChek, Roche, Brussels, Belgium) and serum was conserved for radioimmuno assay (RIA) quantifications (insulin, c-peptide)."}, "monkeys": {"tested_on": "monkeys", "settings": "cited from earlier work"}, "isolated pig islets [1]": {"tested_on": "isolated pig islets", "test": "In vitro islet functionality (24 hr incubation at G5, G15, G15+Fsk; insulin/glucagon RIA)", "assay_type": "cell-based", "settings": "for G15/G5 ratio of insulin secretion: native islets 1.16; for glucagon content, fold vs native islets: 50 mg/kg treated islets; for insulin secretion, fold vs 50 mg/kg treated islets / insulin secretion, fold vs native islets: islets from pigs treated with 30 mg/kg STZ; for glucagon secretion, fold in comparison to 0 mg/kg / glucagon secretion, fold in comparison to 30 mg/kg: islets from pigs treated with 50 mg/kg STZ", "description": "The following steps were performed with the samples kept on ice. […] The samples were then sonicated 4×20 seconds (Sonifier B 12 [Branson Sonic Power Company, Danbury, Conn., USA]) and centrifugated 10 minutes at 4° C. at 1500 rpm. The first supernatant formed was removed and kept at −20° C. […] The samples were then kept at −20° C. overnight. After a step of centrifugation 10 minutes at 4° C. at 1500 rpm, the second supernatant was removed and kept at −20° C. […] The three supernatants were then pooled and constituted the pancreas extract. Human insulin specific RIA KIT and Glucagon RIA KIT (Millipore, Billerica, Mass., USA) were used for the determination of the hormonal content in human/pig pancreatic extractions as well as in isolated islets (see below). The content of insulin and glucagon in the extracts was performed following the instructions of the manufacturer. […] After incubation overnight at room temperature, 1 mL of precipitating reagent were added, followed by incubation 20 minutes at 4° C. The samples were then centrifuged 20 minutes at 2000-3000×g at 4° C.\nThree replicates per concentration were performed. Media were thereafter recovered for insulin and glucagon quantification and islets were transferred in acid-ethanol for hormones extraction and quantification by radioimmuno-assay (see above)."}, "isolated pig islets [2]": {"tested_on": "isolated pig islets", "test": "Islet structure after isolation (histology of isolated islets from STZ-treated pigs)", "assay_type": "in vivo", "settings": "for proportion of beta-cells in islets: mean±SD, native 91.47±1.19", "description": "(ii) Young pig islets treated with selected doses of STZ (0, 30, 50 mg/kg) were isolated following a method previously described by Dufrane et al, Xenotransplantation, 2006. Briefly, after being completely dissected, the pancreas were digested by a modified static digestion method: infusion of the pancreas with Liberase DL Research Grade (Roche/Boehringer Mannheim, Brussels, Belgium; 0.43 mg/mL) dissolved in modified UW solution; placement in a sterile 1 L Nalgene jar for digestion by static incubation at 37° C. for 30-50 minutes; filtration in a 500 μm filter; purification in a ficoll grade (densities 1.090, 1.060 and 1.010) (Mediatech Cellgro); washing and suspension of the islets in Ham-F10 (Gibco)+10% New Born Calf Serum (NCS; Merck-Eurolab, Overijse, Belgium).\nThe cellular composition of human and pig isolated islets was determined by immunohistochemistry. After overnight fixation in formol at room temperature, aliquots of islet preparations were embedded in paraffin and cut in 5 μm sections. Insulin and glucagon staining were performed as described above.\nAlpha and β cells proportion and localization (for pig and human) inside islets were compared in isolated islets from 0, 30 and 50 mg/kg STZ pigs in 3 groups of 5 islets (50-99, 100-149 and 150-200 μm)."}, "[3]": {"settings": "STZ 30 mg/kg, isolated islets of 50-150 μm"}, "[4]": {"settings": "STZ 50 mg/kg, isolated islets of 50-150 μm"}, "[5]": {"settings": "STZ 50 mg/kg, isolated islets of each size"}}}
{"smiles": "CN(N=O)C(=O)N[C@H]1C(O)O[C@H](CO)[C@@H](O)[C@@H]1O", "note": "(mixture of isomers) [STZ, Streptozotocin]", "values": [{"measurement": "AUC for IVGTT curves", "setting": "pigs; STZ 150 mg/kg", "result": "significant higher AUC"}, {"measurement": "glucose metabolism (IVGTT curves)", "setting": "pigs; STZ 30, 50, 75 and 100 mg/kg, single injection, IVGTT 3 months after, vs control animals", "result": "not sufficient to induce dysfunction in glucose metabolism"}, {"measurement": "glucose uptake (IVGTT)", "setting": "pigs; STZ 30-50 mg/kg", "result": "did not affect glucose uptake"}, {"measurement": "number of α-cells", "setting": "monkeys; after STZ treatment, monkeys", "result": "increased"}, {"measurement": "increase of glucagon mass", "setting": "monkeys; after long-term diabetes (>53 days), treated primates", "result": "~89", "unit": "%"}, {"measurement": "stimulation index increase in comparison to native islets", "setting": "isolated pig islets [1]; 30 mg/kg STZ", "result": 45, "unit": "%"}, {"measurement": "G15/G5 ratio of insulin secretion", "setting": "isolated pig islets [1]; 30 mg/kg STZ-treated islets", "result": 1.68}, {"measurement": "insulin content, times more than native islets", "setting": "isolated pig islets [1]; 30 mg/kg STZ, G5 stimulation", "result": 3.3, "unit": "times"}, {"measurement": "insulin content, times more than native islets", "setting": "isolated pig islets [1]; 30 mg/kg STZ, G15 stimulation", "result": 2.5, "unit": "times"}, {"measurement": "stimulation index increase in comparison to native islets", "setting": "isolated pig islets [1]; 50 mg/kg STZ", "result": 28, "unit": "%"}, {"measurement": "G15/G5 ratio of insulin secretion", "setting": "isolated pig islets [1]; 50 mg/kg STZ-treated islets", "result": 1.49}, {"measurement": "insulin content, times higher than native islets", "setting": "isolated pig islets [1]; 50 mg/kg STZ, G5 stimulation", "result": 1.5, "unit": "times"}, {"measurement": "insulin secretion increase in comparison with native pig islets", "setting": "isolated pig islets [1]; 50 mg/kg STZ, G5 stimulation", "result": 1.3, "unit": "times"}, {"measurement": "insulin content, times higher than native islets", "setting": "isolated pig islets [1]; 50 mg/kg STZ, G15 stimulation", "result": 1.4, "unit": "times"}, {"measurement": "insulin secretion increase in comparison with native pig islets", "setting": "isolated pig islets [1]; 50 mg/kg STZ, G15 stimulation", "result": 1.4, "unit": "times"}, {"measurement": "glucagon content, fold vs native islets", "setting": "isolated pig islets [1]; G5", "result": 7.9, "unit": "×"}, {"measurement": "glucagon content, fold vs native islets", "setting": "isolated pig islets [1]; G15 stimulation", "result": 10.4, "unit": "×"}, {"measurement": "increase of the secretion of glucagon by isolated pig islets", "setting": "isolated pig islets [1]; after 30-50 mg/kg STZ", "result": "1.3 to 3.0", "unit": "×"}, {"measurement": "increase of insulin release", "setting": "isolated pig islets [1]; islet remodeling with low doses of STZ", "result": "1.29 to 2.13", "unit": "×"}, {"measurement": "glucagon content, times higher than native islets", "setting": "isolated pig islets [1]; islets from 30 mg/kg treated pigs, G5-G15 stimulations", "result": 4.4, "unit": "times"}, {"measurement": "insulin secretion, fold vs 50 mg/kg treated islets", "setting": "isolated pig islets [1]; G5 stimulation", "result": 1.6, "unit": "×"}, {"measurement": "insulin secretion, fold vs native islets", "setting": "isolated pig islets [1]; G5 stimulation", "result": 2.1, "unit": "×"}, {"measurement": "insulin secretion, fold vs 50 mg/kg treated islets", "setting": "isolated pig islets [1]; G15 stimulation", "result": 1.5, "unit": "×"}, {"measurement": "insulin secretion, fold vs native islets", "setting": "isolated pig islets [1]; G15 stimulation", "result": 2.1, "unit": "×"}, {"measurement": "glucagon secretion, fold in comparison to 0 mg/kg", "setting": "isolated pig islets [1]; G5 stimulation", "result": 2.5, "unit": "×"}, {"measurement": "glucagon secretion, fold in comparison to 30 mg/kg", "setting": "isolated pig islets [1]; G5 stimulation", "result": 2.0, "unit": "×"}, {"measurement": "glucagon secretion, fold in comparison to 0 mg/kg", "setting": "isolated pig islets [1]; G15 stimulation", "result": 3.0, "unit": "×"}, {"measurement": "glucagon secretion, fold in comparison to 30 mg/kg", "setting": "isolated pig islets [1]; G15 stimulation", "result": 1.6, "unit": "×"}, {"measurement": "number of alpha cells per islet in comparison to humans", "setting": "isolated pig islets [2]; [3]", "result": "higher number of alpha cells"}, {"measurement": "proportion of beta-cells in islets", "setting": "isolated pig islets [2]; [3]", "result": "60.46±3.70"}, {"measurement": "proportion of alpha cells per islet in comparison to humans", "setting": "isolated pig islets [2]; STZ 30 mg/kg, isolated islets of 100-150 μm", "result": "higher proportion of alpha cells"}, {"measurement": "number of beta cells per islet in comparison to humans", "setting": "isolated pig islets [2]; STZ 30 mg/kg, isolated islets of 100-200 μm", "result": "higher number of beta cells"}, {"measurement": "number of beta cells in comparison to humans", "setting": "isolated pig islets [2]; [4]", "result": "higher"}, {"measurement": "proportion of beta-cells in islets", "setting": "isolated pig islets [2]; [4]", "result": "60.46±4.55"}, {"measurement": "alpha cell proportion in comparison to humans", "setting": "isolated pig islets [2]; [5]", "result": "higher alpha cell proportion"}, {"measurement": "number of alpha cells per islet in comparison to humans", "setting": "isolated pig islets [2]; [5]", "result": "higher number of alpha cells"}, {"measurement": "number of beta cells in comparison to humans", "setting": "isolated pig islets [2]; STZ 50 mg/kg, large isolated islets (150-200 μm)", "result": "similar"}, {"measurement": "decrease of β-cells (proportion)", "setting": "isolated pig islets [2]; STZ 30-50 mg/kg", "result": 30, "unit": "%"}, {"measurement": "increase of α-cells", "setting": "isolated pig islets [2]; STZ 30-50 mg/kg", "result": "~300", "unit": "%"}, {"measurement": "α-cells in remodeled pig islet", "setting": "isolated pig islets [2]; STZ 30-50 mg/kg", "result": 30, "unit": "%"}, {"measurement": "β-cells in remodeled pig islet", "setting": "isolated pig islets [2]; STZ 30-50 mg/kg", "result": 60, "unit": "%"}]}
